Assay results as given in paper PMC6249242, “Metabolic engineering of Escherichia coli for de novo biosynthesis of vitamin B12” (Nature Communications, 2018).

How the values were obtained:
BluE = molecular target: T1, BluE (Rhodobacter capsulatus, UniProt D5AV17); assay: crude enzyme kinase assay, LC-MS of L-threonine phosphate; also in vivo HPLC; type: biochemical
T1 construct: gene RCAP_rcc02055

CobB = CobB (Rhodobacter capsulatus, UniProt O68108); assay: in vitro amidation, LC-MS of HBAD; type: biochemical
Sequence of CobB (O68108 whole entry): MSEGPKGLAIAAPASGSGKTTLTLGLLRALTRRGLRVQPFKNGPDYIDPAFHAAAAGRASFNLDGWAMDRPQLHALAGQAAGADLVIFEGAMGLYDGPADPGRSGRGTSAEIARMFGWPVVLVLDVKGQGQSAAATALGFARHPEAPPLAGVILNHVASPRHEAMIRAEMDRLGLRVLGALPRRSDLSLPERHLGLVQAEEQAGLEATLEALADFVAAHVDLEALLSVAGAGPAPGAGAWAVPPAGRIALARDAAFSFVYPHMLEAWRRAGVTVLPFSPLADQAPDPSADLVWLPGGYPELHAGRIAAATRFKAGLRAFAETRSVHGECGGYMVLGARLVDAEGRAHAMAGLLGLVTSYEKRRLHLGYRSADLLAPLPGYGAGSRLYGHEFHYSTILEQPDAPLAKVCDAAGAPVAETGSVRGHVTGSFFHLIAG

purified protein = substrate: C[C@@H](OP(=O)(O)O)[C@H](N)C(=O)O; assay: purified protein; settings: pH 6.8 PIPES, 37 °C, 500 µM pyridoxal phosphate (standard assay), substrate taken from the assay description

T1 sequence (D5AV17 entry or part of it): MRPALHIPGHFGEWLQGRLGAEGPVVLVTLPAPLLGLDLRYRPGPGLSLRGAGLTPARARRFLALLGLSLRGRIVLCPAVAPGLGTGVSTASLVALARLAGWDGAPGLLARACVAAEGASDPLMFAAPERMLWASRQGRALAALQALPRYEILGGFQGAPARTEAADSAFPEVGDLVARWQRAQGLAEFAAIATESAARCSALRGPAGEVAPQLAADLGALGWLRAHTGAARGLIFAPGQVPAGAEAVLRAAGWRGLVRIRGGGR

Molecule: C[C@@H](O)[C@H](N)C(=O)O [L-threonine]
- crude enzyme kinase assay, LC-MS of L-threonine phosphate; also in vivo HPLC (BluE): crude BluE activity was confirmed via an in vitro assay

Molecule: C/C1=C2N=C(/C=C3\N/C(=C(/C)C4=NC(C)(C5N=C1C(C)(CCC(=O)O)C5CC(=O)O)C(C)(CC(=O)O)C4CCC(=O)O)C(C)(CC(=O)O)C3CCC(=O)O)C(C)(C)C/2CCC(=O)O (stereo not drawn) [hydrogenobyrinic acid]
- in vitro amidation, LC-MS of HBAD (CobB): it was completely converted to HBAD by CobB enzyme from R. capsulatus in vitro

B1: RcCobC (Rhodobacter capsulatus SB 1003) (protein)
chain: MRDHGGNSDAARAQYGGEDWIDLSTGINRQPWPVPDLPAHVWTDLPTATAKAALLDAAAAAFGTPAPGVALAGAQQAIQLIPRLWAPGRARVLGPTYNEHAAALRAAGWQVEEVSTLGALAGADLAVVVNPNNPDGQRHPAAALRALSLQVGRLVVDESFADASPAASVTAKASRRMLVLRSFGKFYGLAGLRLGFVFADAATVAALSEMAGPWPVSGPALEIGRRALLDRNWAMATALRLGAETMRMDALAARAGWRLVGGTALFRTYATPDAAAAQDHLARARIWSRVFPYAADWLRLGLPGNESEWMRLEKALTNEL
- Km (purified protein): 1890 µM
